Here are results for three molecules from patent publication US7704993B2, “Benzazepine derivatives and methods of prophylaxis or treatment of 5ht2c receptor associated diseases” (Arena Pharmaceuticals, Inc., priority 2003, dated 2010).

The target of one assay is T1, human 5HT2C receptor (Homo sapiens, UniProt P28335).
T1 construct: expressed in transfected cells; host or cells: HEK293 cells, transient transfection with lipofectamine
T1 sequence (P28335 33-458): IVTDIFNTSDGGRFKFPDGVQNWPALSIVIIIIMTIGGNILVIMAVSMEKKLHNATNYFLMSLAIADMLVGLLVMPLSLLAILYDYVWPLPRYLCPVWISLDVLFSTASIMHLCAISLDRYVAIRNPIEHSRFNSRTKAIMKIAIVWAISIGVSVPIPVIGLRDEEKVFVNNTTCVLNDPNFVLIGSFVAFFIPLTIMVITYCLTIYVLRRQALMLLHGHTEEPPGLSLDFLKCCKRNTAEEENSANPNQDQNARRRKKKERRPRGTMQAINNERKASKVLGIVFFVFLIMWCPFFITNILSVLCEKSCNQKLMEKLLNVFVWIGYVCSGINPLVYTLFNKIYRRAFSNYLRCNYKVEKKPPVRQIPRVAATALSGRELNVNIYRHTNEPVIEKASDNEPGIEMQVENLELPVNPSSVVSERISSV
Kind of assay: Intracellular IP3 Accumulation Assay. The class given is cell-based. As to conditions: HEK293 cells transfected with human 5HT2C receptor cDNA; read-out: 5HT2C (IC50) IP Accumulation Assay. The method, then:
Intracellular IP3 Accumulation Assay:
HEK293 cells were transfected in 15 cm sterile dishes with or without (control) 16 ug of human 5HT2C receptor cDNA [for example see, Saltzman, A. G., et al. Biochem. Biophys. Res. Commun. 181, 1469-1478 (1991)] using 25 ul of lipofectamine. Cells were then incubated for 3-4 hours at 37° C./5% CO2 and then transfection media was removed and replaced with 100 ul of DMEM. Cells were then plated onto 100 cm sterile dishes. The next day cells were plated into 96 well PDL microtiter plates at a density of 55 K/0.2 ml. Six hours latter, media was exchanged with [^3H]inositol (0.25 uCi/well) in inositol free DMEM and plates were incubated at 37° C./5% CO2 overnight. The next day, wells were aspirated and 200 ul of DMEM containing test compound, 10 uM pargyline, and 10 mM LiCl was added to appropriate wells. Plates were then incubated at 37° C./5% CO2 for three hours followed aspiration and by addition of fresh ice cold stop solution (1M KOH, 19 mM Na-borate, 3.8 mM EDTA) to each well. Plates were kept on ice for 5-10 min and the wells were neutralized by addition of 200 ul of fresh ice cold neutralization solution (7.5% HCl). Plates were then frozen until further processing is desired. The lysate was then transferred into 1.5 ml Eppendorf tubes and 1 ml of chloroform/methanol (1:2) was added/tube. […]

Assay [1] relates to amyloid precursor protein (APPs) secretion / Aβ production. To be noted: guinea pigs, repeat administration; cited from earlier work.

What is called IC50 is the concentration needed to halve the response being measured. `CC1CNCCc2c(Cl)cc(Cl)cc21` (racemic) [Compound 1, (R,S) 6,8-Dichloro-1-methyl-2,3,4,5-tetrahydro-1H-3-benzazepine]: the IC50 at human 5HT2C receptor worked out at 11.7 nM.

Regarding `CC1CNCCc2ccc(Cl)c(F)c21` (racemic) [Compound 3, (R,S) 8-Chloro-9-fluoro-1-methyl-2,3,4,5-tetrahydro-1H-3-benzazepine], on human 5HT2C receptor, the IC50 was found to be 24.5 nM.

As for `C[C@H](N)Cc1cccc(C(F)(F)F)c1` [dexnorfenfluramine (DEXNOR), dexnorfenfluramine], in assay [1], the “amyloid precursor protein (APPs) secretion” value is “stimulated” and the “levels of Aβ production in vivo” value is recorded as “reducing”.
